Measurements: patent US10294202B2, “Pyrrolidinones as herbicides” (FMC Corporation, priority 2013, dated 2019)

Legend:
[1] = tested on: galium; experiment: Test A postemergence herbicide test; assay type: in vivo, Galium aparine
Method in brief: (§1)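 Potted in loam soil/sand blend; postemergence application at 1–2 leaf stage (2–10 cm). Greenhouse ~10 d. Visual injury vs untreated, 0–100 scale; 100 = complete control.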

[2] = tested on: ryegrass, Italian; experiment: Test A pre-/postemergence herbicide test; assay type: in vivo, Lolium multiflorum
Method in brief: (§2)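 Visual injury ratings, 0 = no effect, 100 = complete control, taken ~10 days after treatment against untreated greenhouse controls. Preemergence: directed soil spray onto seeded loam/sand pots. Postemergence: spray onto plants at one- to two-leaf stage, 2–10 cm tall.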

[3] = tested on: sedge, umbrella; experiment: Test B flooded paddy test; assay type: in vivo, Cyperus difformis; details: 500 g ai/ha, Flood; scale of 0 to 100 where 0 is no effect and 100 is complete control
Method in brief: (§3)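 In-water application to pots flooded 3 cm deep, plants at 2-leaf stage. Held in greenhouse 13–15 days at constant flood depth. Scored 0–100 by eye against controls.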

[4] = tested on: wheat; experiment: Test A pre-/postemergence herbicide test; assay type: in vivo, Triticum aestivum; details: Postemergence
Method in brief: as §2

[5] = tested on: blackgrass; experiment: Test A postemergence herbicide test; assay type: in vivo, Alopecurus myosuroides
Method in brief: as §1

[6] = tested on: corn; experiment: Test A pre-/postemergence herbicide test; assay type: in vivo, Zea mays; details: Postemergence
Method in brief: as §2

[7] = tested on: kochia; experiment: Test A pre-/postemergence herbicide test; assay type: in vivo, Kochia scoparia
Method in brief: as §2

[8] = tested on: ragweed; experiment: Test A pre-/postemergence herbicide test; assay type: in vivo, Ambrosia elatior
Method in brief: as §2

[9] = tested on: ducksalad; experiment: Test B flooded paddy test; assay type: in vivo, Heteranthera limosa; details: 500 g ai/ha, Flood; scale of 0 to 100 where 0 is no effect and 100 is complete control
Method in brief: as §3

[10] = tested on: barnyardgrass; experiment: Test A pre-/postemergence herbicide test; assay type: in vivo, Echinochloa crus-galli
Method in brief: as §2

[11] = tested on: pigweed; experiment: Test A pre-/postemergence herbicide test; assay type: in vivo, Amaranthus retroflexus
Method in brief: as §2

[12] = tested on: barnyardgrass; experiment: Test B flooded paddy test; assay type: in vivo, Echinochloa crus-galli; details: 500 g ai/ha, Flood; scale of 0 to 100 where 0 is no effect and 100 is complete control
Method in brief: as §3

[13] = tested on: rice; experiment: Test B flooded paddy test; assay type: in vivo, Oryza sativa; details: 500 g ai/ha, Flood; scale of 0 to 100 where 0 is no effect and 100 is complete control
Method in brief: as §3

[14] = tested on: giant foxtail; experiment: Test A pre-/postemergence herbicide test; assay type: in vivo, Setaria faberii
Method in brief: as §2

[15] = 125 g ai/ha, visual rating on 0 to 100 scale (0 no effect, 100 complete control), approx. 10 days
[16] = 500 g ai/ha, 0 to 100 scale (0 no effect, 100 complete control)
[17] = Postemergence, 125 g ai/ha, visual rating on 0 to 100 scale (0 no effect, 100 complete control), approx. 10 days
[18] = Postemergence, 500 g ai/ha, 0 to 100 scale (0 no effect, 100 complete control)
[19] = Preemergence, 125 g ai/ha, 0 to 100 scale where 0 is no effect and 100 is complete control
[20] = Preemergence, 500 g ai/ha, visual rating on 0 to 100 scale (0 no effect, 100 complete control)

Row | SMILES | Plant response rating, Galium [1, 15] | Plant response rating, Ryegrass, Italian [2, 17] | Plant response rating, Ryegrass, Italian [2, 19] | Ryegrass, Italian plant response rating [2, 20] | Plant response rating, Sedge, Umbrella [3] | Plant response rating, Wheat [4, 15] | Plant response rating, Blackgrass [5, 15] | Plant response rating, Blackgrass [5, 16] | Plant response rating, Corn [6, 15] | Plant response rating, Corn [6, 16] | Plant response rating, Kochia [7, 17] | Plant response rating, Kochia [7, 19] | Kochia plant response rating [7, 20] | Plant response rating, Ragweed [8, 17] | Ragweed plant response rating [8, 20] | Plant response rating, Ducksalad [9] | Plant response rating, Barnyardgrass [10, 17] | Plant response rating, Barnyardgrass [10, 18] | Plant response rating, Barnyardgrass [10, 19] | Barnyardgrass plant response rating [10, 20] | further results
1 | O=C1NCC(c2cccc(Oc3ccccc3)c2)C1C(=O)Nc1cccc(F)c1F (centres unmarked) [Compound 332] | 0 | 0 | 0 | 0 | 0 | 0 | 0 | 0 | 0 | 0 | 0 | 0 | 0 | 0 | 0 | 75 | 40 | 50 | 70 | 80 | Plant response rating, Galium [1, 16]: 20; Plant response rating, Ryegrass, Italian [2, 18]: 20; Plant response rating, Wheat [4, 16]: 20; Plant response rating, Kochia [7, 18]: 20; Plant response rating, Ragweed [8, 18]: 0; Plant response rating, Ragweed [8, 19]: 0; Plant response rating, Pigweed [11, 17]: 0; Plant response rating, Pigweed [11, 18]: 0; Plant response rating, Pigweed [11, 19]: 0; Pigweed plant response rating [11, 20]: 0; Plant response rating, Barnyardgrass [12]: 40; Plant response rating, Rice [13]: 0; Plant response rating, Foxtail, Giant [14, 17]: 30; Plant response rating, Foxtail, Giant [14, 18]: 80; Plant response rating, Foxtail, Giant [14, 19]: 80; Foxtail, Giant plant response rating [14, 20]: 90
2 | O=C1NCC(c2cccc(Oc3ccccc3)c2)C1C(=O)Nc1ccc(F)c(F)c1F (centres unmarked) [Compound 333] | 0 | 0 | 0 | 20 | 0 | 0 | 0 | 30 | 0 | 20 | 0 | 0 | 0 | 0 | 0 | 20 | 20 | 60 | 50 | 90 | Plant response rating, Galium [1, 16]: 40; Plant response rating, Ryegrass, Italian [2, 18]: 30; Plant response rating, Wheat [4, 16]: 20; Plant response rating, Kochia [7, 18]: 20; Plant response rating, Ragweed [8, 18]: 20; Plant response rating, Ragweed [8, 19]: 0; Plant response rating, Pigweed [11, 17]: 0; Plant response rating, Pigweed [11, 18]: 20; Plant response rating, Pigweed [11, 19]: 0; Pigweed plant response rating [11, 20]: 0; Plant response rating, Barnyardgrass [12]: 0; Plant response rating, Rice [13]: 0; Plant response rating, Foxtail, Giant [14, 17]: 50; Plant response rating, Foxtail, Giant [14, 18]: 80; Plant response rating, Foxtail, Giant [14, 19]: 80; Foxtail, Giant plant response rating [14, 20]: 90
3 | O=C1NCC(c2cccc(Oc3ccccc3)c2)C1C(=O)Nc1ccccc1Cl (centres unmarked) [Compound 334] | 0 | 0 | 0 | 0 | 0 | 0 | 0 | 0 | 0 | 0 | 0 | 0 | 0 | 0 | 0 | 40 | 0 | 0 | 0 | 0 | Plant response rating, Galium [1, 16]: 0; Plant response rating, Ryegrass, Italian [2, 18]: 0; Plant response rating, Wheat [4, 16]: 0; Plant response rating, Kochia [7, 18]: 0; Plant response rating, Ragweed [8, 18]: 0; Plant response rating, Ragweed [8, 19]: 0; Plant response rating, Pigweed [11, 17]: 0; Plant response rating, Pigweed [11, 18]: 0; Plant response rating, Pigweed [11, 19]: 0; Pigweed plant response rating [11, 20]: 0; Plant response rating, Barnyardgrass [12]: 30; Plant response rating, Rice [13]: 0; Plant response rating, Foxtail, Giant [14, 17]: 0; Plant response rating, Foxtail, Giant [14, 18]: 10; Plant response rating, Foxtail, Giant [14, 19]: 0; Foxtail, Giant plant response rating [14, 20]: 50
4 | O=C1NCC(c2cccc(-n3cccn3)c2)C1C(=O)Nc1cccc(F)c1F (centres unmarked) [Compound 337] | 0 | 0 | 0 | 0 | 0 | 0 | 0 | 0 | 0 | 0 | 0 | 0 | 0 | 0 | 0 | 0 | 0 | 50 | 0 | 20 | Plant response rating, Ragweed [8, 19]: 0; Plant response rating, Pigweed [11, 17]: 0; Plant response rating, Pigweed [11, 19]: 0; Pigweed plant response rating [11, 20]: 0; Plant response rating, Barnyardgrass [12]: 0; Plant response rating, Rice [13]: 0; Plant response rating, Foxtail, Giant [14, 17]: 0; Plant response rating, Foxtail, Giant [14, 18]: 40; Plant response rating, Foxtail, Giant [14, 19]: 0; Foxtail, Giant plant response rating [14, 20]: 30
5 | O=C1NCC(c2ccc(Br)c(Br)c2)C1C(=O)Nc1cccc(F)c1F (centres unmarked) [Compound 341] | 0 | 0 | 0 | 0 | 0 | 0 | 0 | 0 | 0 | 30 | 0 | 0 | 0 | 0 | 0 | 0 | 30 | 50 | 50 | 80 | Plant response rating, Ragweed [8, 19]: 0; Plant response rating, Pigweed [11, 17]: 0; Plant response rating, Pigweed [11, 19]: 0; Pigweed plant response rating [11, 20]: 0; Plant response rating, Barnyardgrass [12]: 0; Plant response rating, Rice [13]: 0; Plant response rating, Foxtail, Giant [14, 17]: 50; Plant response rating, Foxtail, Giant [14, 18]: 70; Plant response rating, Foxtail, Giant [14, 19]: 80; Foxtail, Giant plant response rating [14, 20]: 90
6 | O=C1NCC(c2ccc(OC(F)F)cc2)C1C(=O)Nc1ccccc1C(F)(F)F (centres unmarked) [Compound 348] | 0 | 0 | 0 | 0 | 0 | 0 | 20 | 30 | 0 | 0 | 20 | 0 | 70 | 0 | 30 | 100 | 20 | 50 | 30 | 60 | Plant response rating, Pigweed [11, 17]: 0; Plant response rating, Pigweed [11, 19]: 20; Pigweed plant response rating [11, 20]: 50; Plant response rating, Barnyardgrass [12]: 40; Plant response rating, Rice [13]: 0; Plant response rating, Foxtail, Giant [14, 17]: 70; Plant response rating, Foxtail, Giant [14, 18]: 90; Plant response rating, Foxtail, Giant [14, 19]: 90; Foxtail, Giant plant response rating [14, 20]: 90
